Experimental data reported in patent US10285983B2, “3-(1H-pyrrolo[2,3-B]pyridin-2-yl)-1H-pyrazolo[3,4-B] pyridines and therapeutic uses thereof” (Samumed, LLC, priority 2015, dated 2019).

What was measured:
Type in all cases: cell-based
[1] = test system: primary human fibroblasts derived from IPF patients (LL29 cells); test: Inhibition of fibrotic process, αSMA staining in TGF-β1 treated LL29 fibroblasts; conditions: Fibroblast, 96 h, TGF-β1 20 ng/mL, 4 days; for EC50: % αSMA positive cells; for inhibition at 10 µM: given for EC50 >10 μM, read-out: percent inhibition at 10 μM
Text: Representative compounds were screened using primary human fibroblasts (derived from IPF patients) treated with TGF-β1 to determine their ability to inhibit the fibrotic process.
Primary human fibroblasts derived from IPF patients (LL29 cells) [^1Xiaoqiu Liu, et. al., “Fibrotic Lung Fibroblasts Show Blunted Inhibition by cAMP Due to Deficient cAMP Response Element-Binding Protein Phosphorylation”, Journal of Pharmacology and Experimental Therapeutics (2005), 315(2), 678-687; ^2Watts, K. L., et. al., “RhoA signaling modulates cyclin D1 expression in human lung fibroblasts; implications for idiopathic pulmonary fibrosis”, Respiratory Research (2006), 7(1), 88] were obtained from American Type Culture Collection (ATCC) and expanded in F12 medium supplemented with 15% Fetal Bovine Serum and Penicillin/Streptomycin.
Each compound was dissolved in DMSO as a 10 mM stock and used to prepare compound source plates. Serial dilution (1:2, 11-point dose-response curves from […] to […]) and compound transfer was performed using the ECHO 550 (Labcyte, Sunnyvale, Calif.) into 384-well clear bottom assay plates (Greiner Bio-One) with appropriate DMSO backfill for a final DMSO concentration of 0.1%. LL29 cells are plated at 1,500 cells/well in 80 μL/well F12 medium supplemented with 1% Fetal Bovine Serum. One hour after addition of the cells, TGF-β1 (Peprotech; 20 ng/mL) was added to the plates to induce fibrosis (ref. 1 and 2 above). Wells treated with TGF-β1 and containing DMSO were used as controls. Cells were incubated at 37° C. and 5% CO2 for 4 days. Following incubation for 4 days, SYTOX green nucleic acid stain (Life Technologies [Thermo Fisher Scientific]) was added to the wells at a final concentration of 1 μM and incubated at room temperature for 30 min. Cells were then fixed using 4% formaldehyde (Electron Microscopy Sciences), washed 3 times with PBS followed by blocking and permeabilization using 3% Bovine Serum Albumin (BSA; Sigma) and 0.3% Triton X-100 (Sigma) in PBS. Cells were then stained with antibody specific to α-smooth muscle actin (αSMA; Abcam) (ref. 1 and 2 above) in 3% Bovine Serum Albumin (BSA; Sigma) and 0.3% Triton X-100 (Sigma) in PBS, and incubated overnight at 4° C. Cells were then washed 3 times with PBS, followed by incubation with Alexa Flor-647 conjugated secondary antibody (Life Technologies [Thermo Fisher Scientific]) and DAPI at room temperature for 1 hour. Cells were then washed 3 times with PBS and plates were sealed for imaging. αSMA staining was imaged by excitation at 630 nm and emission at 665 nm and quantified using the Compartmental Analysis program on the CellInsight CX5 (Thermo Scientific). Dead or apoptotic cells were excluded from analysis based on positive SYTOX green staining. % of total cells positive for αSMA were counted in each well and normalized to the average of 11 wells treated with TGF-β1 on the same plate using Dotmatics' Studies Software. The normalized averages (fold change over untreated) of 3 replicate wells for each compound concentration were used to create dose-responses curves and EC50 values were calculated using non-linear regression curve fit in the Dotmatics' Studies Software. For EC50 of >10 μM, the percent inhibition at 10 μM is provided.

[2] = test system: IL-6 (THP-1 human monocyte cell line); test: IL-6 inhibition in LPS-stimulated THP-1 cells (HTRF); conditions: LPS 500 ng/mL; for EC50: 22 hours, IL6 HTRF; for inhibition at 10 µM: given for EC50 >10 μM, read-out: percent inhibition at 10 μM
Experimental: Human monocyte cell line (THP-1 cells; Catalog # TIB-202, ATCC, Manassas, Va.) were cultured in Roswell Park Memorial Institute (RPMI) 1640 Medium (Catalog #21870-100, Buffalo, N.Y.) with 1% L-glutamine, 1% HEPES, 1% Sodium Pyruvate, 2% Sodium Bicarbonate supplemented with 100 units/mL penicillin, 50 μg/mL streptomycin, 2-mercaptoethanol (0.05 mM) [basal medium] and 10% fetal bovine serum (Catalog #16140089, Life Technologies, Carlsbad, Calif.) at 37° C. and 5% CO2.
THP-1 cells were cultured in basal media with 1% FBS for 24 hours before the start of the assay. Each compound was dissolved in DMSO as a 10 mM stock and used to prepare compound source plates. Serial dilution (1:3, 10-point dose-response curves starting from […]) and compound transfer was performed using the ECHO 550 (Labcyte, Sunnyvale, Calif.) into 384-well white low volume assay plates (Greiner Bio-One) with appropriate DMSO backfill for a final DMSO concentration of 0.1%. THP-1 cells were plated at 5000 cells/well in the 384-well plates and incubated at 37° C. for 2 h. 500 ng/mL of LPS was added after 2 hours and cells were incubated for another 22 hours at 37° C. Plates were spun in a centrifuge for 1 minute at 10,000 rpm and a mixture of anti-IL6 XL665, and anti-IL6 Cryptate diluted in reconstitution buffer (Cisbio Inc.) was added to each well. Following incubation for 3 hrs at room temperature, Homogeneous Time-Resolved Fluorescence (HTRF) was measured using the Envision (Perkin Elmer) at 665 nm and […]. The ratio of fluorescence at 665 nm to 620 nm was used as a readout for IL6 quantification. All samples were processed in duplicate. Readings were normalized to DMSO treated cells and normalized activities were utilized for EC50 calculations using the dose-response log (inhibitor) vs. response—variable slope (four parameters) nonlinear regression feature available in GraphPad Prism 5.0 (or Dotmatics). For EC50 of >10 μM, the percent inhibition at 10 μM is provided.

SW480 colon cancer cells = test: Cell viability assay (CellTiter-Blue); conditions: Homo sapiens, 96 h, four days; for inhibition at 10 µM: given for EC50 >10 μM, read-out: percent inhibition at 10 μM
Experimental: Representative compounds were screened using the following assay procedure to assess the effect on cell viability as described below.
Each compound was dissolved in DMSO as a 10 mM stock and used to prepare compound source plates. Serial dilution (1:3, 8-point dose-response curves from 10 μM to 0.0045 μM) and compound transfer was performed using the ECHO 550 (Labcyte, Sunnyvale, Calif.) into 96-well clear bottom, black-walled plates (Corning-Costar).
Approximately 2×10^3 SW480 colon cancer cells were seeded into each well and allowed to incubate in the presence or absence of compound for four days at 37° C./5% CO2. Eight replicates of DMSO-treated cells served as controls and cells treated with compound were performed in duplicate.
After incubation, 20 μL of CellTiter-Blue (Promega) was added to each well allowed to incubate for approximately 3 hours. This reagent was a buffered solution which contains resazurin, metabolically active cells were able to reduce rezarurin (blue) into resorufin (pink) which was highly fluorescent. This measured fluorescence was used as a readout for cell viability.
After incubation, the plates were read at Ex 560 nm Em 590 nm (Cytation 3, BioTek). Dose-response curves were generated and EC50 concentration values were calculated using non-linear regression curve fit in the GraphPad Prism (San Diego, Calif.) or Dotmatics' Studies Software (Bishops Stortford, UK). For EC50 of >10 μM, the percent inhibition at 10 μM is provided.

| SMILES | EC50 [2] | EC50 (SW480 colon cancer cells) | EC50 [1] | inhibition at 10 µM (SW480 colon cancer cells) | inhibition at 10 µM [1] | inhibition at 10 µM [2] |
| --- | --- | --- | --- | --- | --- | --- |
| O=C(Nc1cncc(-c2cnc3[nH]nc(-c4cc5cccnc5[nH]4)c3c2)c1)C1CCCC1 [Compound 274, N-(5-(3-(1H-Pyrrolo[2,3-b]pyridin-2-yl)-1H-pyrazolo[3,4-b]pyridin-5-yl)pyridin-3-yl)cyclopentanecarboxamide] | 0.415 µM | > 10 µM | 0.76 µM | 54.2% |  |  |
| O=C(Nc1cncc(-c2cnc3[nH]nc(-c4cc5c(-c6ccccc6F)ccnc5[nH]4)c3c2)c1)C1CCCC1 [Compound 78, N-(5-(3-(4-(2-Fluorophenyl)-1H-pyrrolo[2,3-b]pyridin-2-yl)-1H-pyrazolo [3,4-b]pyridin-5-yl)pyridin-3-yl)cyclopentanecarboxamide] | 0.627 µM | > 10 µM | 7.09 µM | 11.3% |  |  |
| O=C(CC1CCNCC1)Nc1cncc(-c2cnc3[nH]nc(-c4cc5c(-c6ccncc6)ccnc5[nH]4)c3c2)c1 [Compound 577] | > 10 µM | > 10 µM | 1.41 µM | 8.7% |  | 0% |
| CC(C)C(=O)Nc1cncc(-c2cnc3[nH]nc(-c4cc5c(-c6ccccc6F)ccnc5[nH]4)c3c2)c1 [Compound 65, N-(5-(3-(4-(2-Fluorophenyl)-1H-pyrrolo[2,3-b]pyridin-2-yl)-1H-pyrazolo [3,4-b]pyridin-5-yl)pyridin-3-yl)isobutyramide] | > 10 µM | > 10 µM | 0.812 µM | 32.1% |  | 25.6% |
| c1ccc(-c2cnc3[nH]nc(-c4cc5c(-c6ccncc6)ccnc5[nH]4)c3c2)nc1 [Compound 140, 5-(Pyridin-2-yl)-3-(4-(pyridin-4-yl)-1H-pyrrolo[2,3-b]pyridin-2-yl)-1H-pyrazolo[3,4-b]pyridine] | > 10 µM | > 10 µM | > 10 µM | 20.2% | 24.5% | 24.5% |
| CN1CCN(c2ccnc3[nH]c(-c4n[nH]c5ncc(-c6cncc(NC(=O)C7CCCCC7)c6)cc45)cc23)CC1 [Compound 247, N-(5-(3-(4-(4-Methylpiperazin-1-yl)-1H-pyrrolo[2,3-b]pyridin-2-yl)-1H-pyrazolo[3,4-b]pyridin-5-yl)pyridin-3-yl)cyclohexanecarboxamide] | 0.496 µM | > 10 µM | 5.03 µM | 11.7% |  |  |
| Cc1ccncc1-c1cnc2[nH]nc(-c3cc4c(-c5ccc(F)cc5)ccnc4[nH]3)c2c1 [Compound 33, 3-(4-(4-Fluorophenyl)-1H-pyrrolo[2,3-b]pyridin-2-yl)-5-(4-methylpyridin-3-yl)-1H-pyrazolo[3,4-b]pyridine] | > 10 µM | > 10 µM | 4.51 µM | 25% |  | 27.7% |
| Fc1cccc(-c2ccnc3[nH]c(-c4n[nH]c5ncc(-c6ccncc6)cc45)cc23)c1 [Compound 18, 3-(4-(3-Fluorophenyl)-1H-pyrrolo[2,3-b]pyridin-2-yl)-5-(pyridin-4-yl)-1H-pyrazolo[3,4-b]pyridine] | > 10 µM | > 10 µM | 1.45 µM | 23.2% |  | 37.2% |
| CN1CCN(c2ccnc3[nH]c(-c4n[nH]c5ncc(-c6cn[nH]c6)cc45)cc23)CC1 [Compound 635, 3-(4-(4-Methylpiperazin-1-yl)-1H-pyrrolo[2,3-b]pyridin-2-yl)-5-(1H-pyrazol-4-yl)-1H-pyrazolo[3,4-b]pyridine] | > 10 µM | > 10 µM | > 10 µM | 3.6% | 26% | 21.4% |

More lines, main results first:

| EC50 [2] | EC50 (SW480 colon cancer cells) | SMILES | EC50 [1] | inhibition at 10 µM (SW480 colon cancer cells) | inhibition at 10 µM [1] | inhibition at 10 µM [2] |
| --- | --- | --- | --- | --- | --- | --- |
| > 10 µM | > 10 µM | c1cncc(-c2cnc3[nH]nc(-c4cc5c(-c6cccnc6)ccnc5[nH]4)c3c2)c1 [Compound 88, 5-(Pyridin-3-yl)-3-(4-(pyridin-3-yl)-1H-pyrrolo[2,3-b]pyridin-2-yl)-1H-pyrazolo[3,4-b]pyridine] | > 10 µM | 10.8% | 0% | 22.6% |
| > 10 µM | > 10 µM | CC(C)Nc1cncc(-c2cnc3[nH]nc(-c4cc5c(-c6ccccc6F)ccnc5[nH]4)c3c2)c1 [Compound 68, 5-(3-(4-(2-Fluorophenyl)-1H-pyrrolo[2,3-b]pyridin-2-yl)-1H-pyrazolo[3,4-b]pyridin-5-yl)-N-isopropylpyridin-3-amine] | 8.54 µM | 1% |  | 42.9% |
| 0.621 µM | > 10 µM | CCCC(=O)Nc1cncc(-c2cnc3[nH]nc(-c4cc5c(-c6ccncc6)ccnc5[nH]4)c3c2)c1 [Compound 129, N-(5-(3-(4-(Pyridin-4-yl)-1H-pyrrolo[2,3-b]pyridin-2-yl)-1H-pyrazolo[3,4-b]pyridin-5-yl)pyridin-3-yl)butyramide] | 0.621 µM | 3.8% |  |  |
| 0.463 µM | > 10 µM | c1cc(N2CCCCC2)c2cc(-c3n[nH]c4ncc(-c5cncc(CN6CCCC6)c5)cc34)[nH]c2n1 [Compound 182, 3-(4-(Piperidin-1-yl)-1H-pyrrolo[2,3-b]pyridin-2-yl)-5-(5-(pyrrolidin-1-ylmethyl)pyridin-3-yl)-1H-pyrazolo[3,4-b]pyridine] | > 10 µM | 26% | 21.9% |  |
